Read-outs that look alike come from different tables or passages of the source.
Experiments:
[1] = test system: HCT116 (human colon cancer); assay: CCK-8 cell viability assay on HCT116 human colon cancer cells; format: cell-based; conditions: HCT-116, 48 h
Method: The plate is incubated for 48 hours.

[2] = test system: SUM159; assay: CCK-8 cell viability assay on SUM159 human breast cancer cells; conditions: for EC50: Homo sapiens, SUM159, 72 h, read-out: EC50 (uM, SUM159); for potency on human cancer lines in comparison to TIC10: SUM159 cells, 72 hours, versus TIC10
Method: The plate was incubated for 24 hours in a humidified incubator (37° C., 5% CO2). The compound from the present invention, at the appropriate test concentrations, are added to the culture media of the plate. The plate is incubated for 48 hours. CCK-8 (10 ul, see below) is added to each well. The plate is incubated from 1-4 h under conditions as described above, and the absorbance at 450 nm and 650 nm is measured with a plate reader.
Cell Counting was by CCK-8 using WST-8 (2-(2-methoxy-4-nitrophenyl)-3-(4-nitrophenyl)-5-(2,4-disulfophenyl)-2H-tetrazolium, monosodium salt), which produces a water-soluble formazan dye upon bioreduction in the presence of an electron carrier, 1-Methoxy PMS. CCK-8 solution is added directly to the cells. WST-8 is bioreduced by cellular dehydrogenases to an orange formazan product that is soluble in tissue culture medium. The amount of formazan produced is directly proportional to the number of living cells.

[3] = HCT116 cells, 48 hours compound incubation, CCK-8, read-out: EC50 (uM, HCT116)

Row | Compound | EC50 [1, 3] | also measured
1 | Cn1c2c(c(=O)n(Cc3ccc(C(F)(F)F)cc3)c1=O)CN(Cc1ccccc1)CC2 [Example 9] | 0.31 µM | –
2 | CCn1c2c(c(=O)n(Cc3cccc(C(F)(F)F)c3)c1=O)CN(Cc1ccccc1)CC2 [Example 14, 3-(3-(trifluoromethyl)benzyl)-6-benzyl-1-ethyl-5,6,7,8-tetrahydropyrido[4,3-d]pyrimidine-2,4(1H,3H)-dione] | 2.5 µM | –
3 | Cn1c2c(c(=O)n(Cc3ccc(Cl)cc3)c1=O)CN(Cc1cccc(C#N)c1)CC2 [Example 25, 3-((3-(4-chlorobenzyl)-1-methyl-2,4-dioxo-1,2,3,4,7,8-hexahydropyrido[4,3-d]pyrimidin-6(5H)-yl)methyl)benzonitrile] | – | EC50 ([1]; read-out: EC50 (uM, HCT116)): 0.74 µM; EC50 [2]: 0.014 µM; potency on human cancer lines in comparison to TIC10 [2]: significant and unanticipated improvements in potency
4 | Cn1c2c(c(=O)n(Cc3cccc(C(F)(F)F)c3)c1=O)CN(Cc1ccccc1)CC2 [Example 13] | – | EC50 ([1]; read-out: EC50 (uM, HCT116)): 1.4 µM
5 | O=c1[nH]c2c(c(=O)n1Cc1ccc(C(F)(F)F)cc1)CN(Cc1ccccc1)CC2 [Example 8, 3-(4-(trifluoromethyl)benzyl)-6-benzyl-5,6,7,8-tetrahydropyrido[4,3-d]pyrimidine-2,4(1H,3H)-dione] | 2.6 µM | –
6 | CC(C)n1c2c(c(=O)n(Cc3ccc(C(F)(F)F)cc3)c1=O)CN(Cc1ccccc1)CC2 [Example 10, 3-(4-(trifluoromethyl)benzyl)-6-benzyl-5,6,7,8-tetrahydro-1-isopropylpyrido[4,3-d]pyrimidine-2,4(1H,3H)-dione] | 7.1 µM | –
7 | Cc1ccccc1CN1C(=O)C2=C(CCN(Cc3ccccc3)C2)N2CCN=C12 [TIC10, 11-benzyl-7-[(2-methylphenyl)methyl]-2,5,7,11-tetraazatricyclo[7.4.0.0^2,6]trideca-1(9),5-dien-8-one, reference compound] | – | EC50 ([1]; read-out: EC50 (uM, HCT116)): 2.8 µM; EC50 [2]: 1.4 µM
8 | O=c1[nH]c2c(c(=O)n1Cc1ccc(Cl)cc1)CN(Cc1ccccc1)CC2 [Example 5, 6-benzyl-3-(4-chlorobenzyl)-5,6,7,8-tetrahydropyrido[4,3-d]pyrimidine-2,4(1H,3H)-dione] | 2.7 µM | –
9 | CC(C)n1c2c(c(=O)n(Cc3ccc(Cl)cc3)c1=O)CN(Cc1ccccc1)CC2 [Example 7, 6-benzyl-3-(4-chlorobenzyl)-1-isopropyl-5,6,7,8-tetrahydropyrido[4,3-d]pyrimidine-2,4(1H,3H)-dione] | 6.6 µM | –
10 | CCn1c2c(c(=O)n(Cc3ccc(C(F)(F)F)cc3)c1=O)CN(Cc1cccc(C#N)c1)CC2 [Example 27, 3-((1-ethyl-2,4-dioxo-3-(4-(trifluoromethyl)benzyl)-1,2,3,4,7,8-hexahydropyrido[4,3-d]pyrimidin-6(5H)-yl)methyl)benzonitrile] | 1.9 µM | –
11 | CCn1c2c(c(=O)n(Cc3ccc(Cl)cc3)c1=O)CN(Cc1cccc(C#N)c1)CC2 [Example 28, 3-((3-(4-chlorobenzyl)-1-ethyl-2,4-dioxo-1,2,3,4,7,8-hexahydropyrido[4,3-d]pyrimidin-6(5H)-yl)methyl)benzonitrile] | 0.21 µM | –

The next lines start with results.

Row | EC50 [1, 3] | Compound | also measured
12 | 3 µM | Cc1cccc(Cn2c(=O)[nH]c3c(c2=O)CN(Cc2ccccc2)CC3)c1 [Example 2, 6-benzyl-3-[(3-methylphenyl)methyl]-1H, 2H, 3H, 4H, 5H, 6H, 7H, 8H-pyrido[4,3-d]pyrimidine-2,4-dione] | –
13 | 1.4 µM | C#Cc1cccc(CN2CCc3c(c(=O)n(Cc4ccc(C(F)(F)F)cc4)c(=O)n3C)C2)c1 [Example 18, 6-(3-ethynylbenzyl)-1-methyl-3-(4-(trifluoromethyl)benzyl)-5,6,7,8-tetrahydropyrido[4,3-d]pyrimidine-2,4(1H,3H)-dione] | –
14 | 0.5 µM | Cn1c2c(c(=O)n(Cc3ccc(C(F)(F)F)cc3)c1=O)CN(Cc1cccc(C#N)c1)CC2 [Example 26, 3-((1-methyl-2,4-dioxo-3-(4-(trifluoromethyl)benzyl)-1,2,3,4,7,8-hexahydropyrido[4,3-d]pyrimidin-6(5H)-yl)methyl)benzonitrile] | EC50 [2]: 0.017 µM; potency on human cancer lines in comparison to TIC10 [2]: significant and unanticipated improvements in potency
15 | 2 µM | Cc1cccc(Cn2c(=O)c3c(n(C(C)C)c2=O)CCN(Cc2ccccc2)C3)c1 [Example 4, 6-benzyl-1-isopropyl-3-(3-methylbenzyl)-5,6,7,8-tetrahydropyrido[4,3-d]pyrimidine-2,4(1H,3H)-dione] | –
16 | 0.1 µM | Cn1c2c(c(=O)n(Cc3ccc(C(F)(F)F)cc3)c1=O)CN(Cc1cccc(Cl)c1)CC2 [Example 22, 6-(3-chlorobenzyl)-1-methyl-3-(4-(trifluoromethyl)benzyl)-5,6,7,8-tetrahydropyrido[4,3-d]pyrimidine-2,4(1H,3H)-dione] | –
17 | 0.18 µM | Cc1cccc(Cn2c(=O)c3c(n(C)c2=O)CCN(Cc2ccccc2)C3)c1 [Example 3, 6-benxyl-1-methyl-3-[(3-methylphenyl)methyl]-1H, 2H, 3H, 4H, 5H, 6H, 7H, 8H-pyrido[4,3-d]pyrimidine-2,4-dione] | –
18 | 0.022 µM | Cn1c2c(c(=O)n(Cc3ccc(Br)cc3)c1=O)CN(Cc1cccc(C#N)c1)CC2 [Example 24, 3-((3-(4-bromobenzyl)-1-methyl-2,4-dioxo-1,2,3,4,7,8-hexahydropyrido[4,3-d]pyrimidin-6(5H)-yl)methyl)benzonitrile] | –
19 | 1.1 µM | Cn1c2c(c(=O)n(Cc3cccc(Br)c3)c1=O)CN(Cc1ccccc1)CC2 [Example 17, 6-benzyl-3-(3-bromobenzyl)-1-methyl-5,6,7,8-tetrahydropyrido[4,3-d]pyrimidine-2,4(1H,3H)-dione] | –
20 | 1 µM | C#Cc1cccc(CN2CCc3c(c(=O)n(Cc4cccc(C)c4)c(=O)n3C)C2)c1 [Example 20, 6-(3-ethynylbenzyl)-1-methyl-3-(3-methylbenzyl)-5,6,7,8-tetrahydropyrido[4,3-d]pyrimidine-2,4(1H,3H)-dione] | –
21 | 2.5 µM | Cn1c2c(c(=O)n(Cc3ccc4c(c3)OCO4)c1=O)CN(Cc1ccccc1)CC2 [Example 23, 3-(benzo[d][1,3]dioxol-5-ylmethyl)-6-benzyl-1-methyl-5,6,7,8-tetrahydropyrido[4,3-d]pyrimidine-2,4(1H,3H)-dione] | –
22 | 3 µM | Cn1c2c(c(=O)n(Cc3cccc(Cl)c3)c1=O)CN(Cc1ccccc1)CC2 [Example 15, 3-(3-chlorobenzyl)-6-benzyl-5,6,7,8-tetrahydro-1-methylpyrido[4,3-d]pyrimidine-2,4(1H,3H)-dione] | –
23 | 1.5 µM | C#Cc1cccc(CN2CCc3c(c(=O)n(Cc4ccccc4C)c(=O)n3C)C2)c1 [Example 19, 6-(3-ethynylbenzyl)-1-methyl-3-(2-methylbenzyl)-5,6,7,8-tetrahydropyrido[4,3-d]pyrimidine-2,4(1H,3H)-dione] | –
24 | 0.26 µM | Cn1c2c(c(=O)n(Cc3ccc(Cl)cc3)c1=O)CN(Cc1ccccc1)CC2 [Example 6, 6-benzyl-3-(4-chlorobenzyl)-1-methyl-5,6,7,8-tetrahydropyrido[4,3-d]pyrimidine-2,4(1H,3H)-dione] | –
25 | 1.4 µM | C#Cc1cccc(CN2CCc3c(c(=O)n(Cc4ccc(Cl)cc4)c(=O)n3C)C2)c1 [Example 21, 3-(4-chlorobenzyl)-6-(3-ethynylbenzyl)-1-methyl-5,6,7,8-tetrahydropyrido[4,3-d]pyrimidine-2,4(1H,3H)-dione] | –
